Earlier results on 5 compounds are cited in patent US9622997B2, “Methods for treating insomnia” (Lynn Health Science Institute, Inc., priority 2012, dated 2017).

The subject of data set [1] is 3 hour phase-advance study population. Particulars: 6 mg, cited from earlier work.
The test system of data set [2] is 2 hour phase-advance study population. Particulars: cited from earlier work; for TST: ↑ increase compared to placebo; for WASG: ↓ decrease compared to placebo.
The test system of data set [3] is First-night effect (no PA) study population. The settings on record: cited from earlier work; for TST: ↑ increase compared to placebo; for WASG: ↓ decrease compared to placebo, NS.
Data set [4] has as its system 2 hour phase-advance study population. Particulars: ↓ decrease compared to placebo, cited from earlier work.
In data set [5] the test system is 3 hour phase-advance study population. Details: TST: unit not given here. Particulars: cited from earlier work; for TST: ↑ increase compared to placebo; for WASG: ↓ decrease compared to placebo.
Data set [6] deals with 4 hour phase-advance study population. Particulars: 10 mg, cited from earlier work.
Data set [7] has the same test system. Particulars: 10 mg, cited from earlier work. This is another data set of the same source.
For data set [8] the following is noted: recent study; cited from earlier work.

Read-outs that look alike come from different tables or passages of the source.

Take `CN(C)CCC=C1c2ccccc2COc2ccccc21` [Doxepin]: the TST entry in data set [1] (↑ increase compared to placebo) is “↑ 51.1”. In addition, in data set [1] (↓ decrease compared to placebo), the SOL entry is “↓ 15.9” and the WASG result is listed as “↓ 40.0 min”.

As for `CC(=O)N(C)c1cccc(-c2ccnc3c(C(=O)c4cccs4)cnn23)c1` [Indiplon], the TST entry is given as “↑ 11.6” in data set [2] (10 mg) and “↑ 20.6” in data set [2] (20 mg). The WASG result in data set [2] (20 mg) is on record as “↓ 7.4 min”; in data set [2] (NS, 10 mg), “↓ 1.2^NS min”.

Take `CCC(=O)NCC[C@@H]1CCc2ccc3c(c21)CCO3` [Ramelteon]: in data set [3] (8 mg), the TST result is “↑ 17.1” and the WASG result was “↓ 5.0^NS min”. In data set [3] (16 mg), the TST entry is “↑ 13.4” and the WASG entry was “↓ 2.5^NS min”.

For the compound `CN1C(=O)C(O)N=C(c2ccccc2)c2cc(Cl)ccc21` (stereo not drawn) [Temazepam], the WASG entry in data set [4] (NS, temazepam 15 mg) is “↓ 7.0^NS min”.

As to `Cc1ccc(-c2nc3ccc(C)cn3c2CC(=O)N(C)C)cc1` [Zolpidem], the WASG in data set [4] (zolpidem 10 mg, listed as zolpidem) is on record as 9.4 min; in data set [4] (zolpidem 10 mg) it was “↓ 9.4 min”; in data set [5] (20 mg), “↓ 32.3 min”; in data set [5] (NS, 5 mg), “↓ 22.5^NS min”; in data set [5] (NS, 10 mg) it was “↓ 31.2^NS min”; in data set [5] (NS, 15 mg), “↓ 26.9^NS min”. Besides, the WASG result in data set [6] (↓ decrease compared to placebo) was “↓ 35.1 min”; in data set [7] (↓ decrease compared to placebo), “↓ 24.7 min”. In addition, the TST result is “↑ 35.7” in data set [5] (10 mg); “↑ 37.3” in data set [5] (15 mg); “↑ 35.6^NS” in data set [5] (NS, 5 mg); “↑ 12.8^NS” in data set [5] (NS, 20 mg); “↑ 52.8” in data set [6] (↑ increase compared to placebo); “↑ 47.8” in data set [7] (↑ increase compared to placebo). Further, the “effect on sleep related GER (acid contact time)” value in data set [8] was “markedly prolonging acid contact time”.
